Results as given in patent US6552196B2, “Quinolone carboxylic acid derivatives” (Dong Wha Pharmaceutical Industrial Co., Ltd., priority 1997, dated 2003).

Key:
Assay type in all cases: cell-based
[1] = test system: Pseudomonas aeruginosa 1771; experiment: In vitro antibacterial activity (MIC), agar dilution; settings: 2-fold agar dilution, Muller-Hinton agar, 18 hours at 37° C., read-out: minimum inhibitory concentration (MIC)
Protocol: (§1) 10^7 cfu/ml of bacteria were inoculated and cultured for 18 hours at 37° C. and then the antibacterial activities were measured. For the methicillin resistant strains the activities were measured after 48 hours of cultivation at 30° C. Hoechst Standard strains were used for the testings.

[2] = test system: Staphylococcus aureus SG511; experiment: as above; settings: 2-fold agar dilution, Muller-Hinton agar, 18 hours at 37° C., read-out: minimum inhibitory concentration (MIC)
Protocol: as §1

[3] = test system: Pseudomonas aeruginosa 1771M; experiment: as above; settings: Pseudomonas aeruginosa, 1771M, 18 h, read-out: minimum inhibitory concentration (MIC)
Protocol: as §1

[4] = test system: Staphylococcus aureus 503; experiment: as above; settings: 2-fold agar dilution, Muller-Hinton agar, 18 hours at 37° C., read-out: minimum inhibitory concentration (MIC)
Protocol: as §1

Klebsiella oxytoca 1082E = experiment: as above; settings: 2-fold agar dilution, Muller-Hinton agar, 18 hours at 37° C., read-out: minimum inhibitory concentration (MIC)
Protocol: as §1

Salmonella typhimurium = experiment: as above; settings: Salmonella enterica, 2-fold agar dilution, Muller-Hinton agar, 18 hours at 37° C., read-out: minimum inhibitory concentration (MIC)
Protocol: as §1

[5] = test system: Klebsiella aerogenes 1522E; experiment: as above; settings: 2-fold agar dilution, Muller-Hinton agar, 18 hours at 37° C., read-out: minimum inhibitory concentration (MIC)
Protocol: as §1

[6] = test system: Staphylococcus aureus 285; experiment: as above; settings: 2-fold agar dilution, Muller-Hinton agar, 18 hours at 37° C., read-out: minimum inhibitory concentration (MIC)
Protocol: as §1

[7] = test system: Enterobacter clocae 1321E; experiment: as above; settings: 2-fold agar dilution, Muller-Hinton agar, 18 hours at 37° C., read-out: minimum inhibitory concentration (MIC)
Protocol: as §1

Enterobacter clocae P99 = experiment: as above; settings: 2-fold agar dilution, Muller-Hinton agar, 18 hours at 37° C., read-out: minimum inhibitory concentration (MIC)
Protocol: as §1

[8] = test system: Streptococcus faecium MD 8b; experiment: as above; settings: Enterococcus faecium, MD8B, 2-fold agar dilution, Muller-Hinton agar, 18 hours at 37° C., read-out: minimum inhibitory concentration (MIC)
Protocol: as §1

[9] = test system: Pseudomonas aeruginosa 1592E; experiment: as above; settings: 2-fold agar dilution, Muller-Hinton agar, 18 hours at 37° C., read-out: minimum inhibitory concentration (MIC)
Protocol: as §1

[10] = test system: Pseudomonas aeruginosa 9027; experiment: as above; settings: 2-fold agar dilution, Muller-Hinton agar, 18 hours at 37° C., read-out: minimum inhibitory concentration (MIC)
Protocol: as §1

Esherichia coli 078 = experiment: as above; settings: 2-fold agar dilution, Muller-Hinton agar, 18 hours at 37° C., read-out: minimum inhibitory concentration (MIC)
Protocol: as §1

Esherichia coli DC0 = experiment: as above; settings: 2-fold agar dilution, Muller-Hinton agar, 18 hours at 37° C., read-out: minimum inhibitory concentration (MIC)
Protocol: as §1

[11] = test system: Streptococcus pyogens 308A; experiment: as above; settings: 2-fold agar dilution, Muller-Hinton agar, 18 hours at 37° C., read-out: minimum inhibitory concentration (MIC)
Protocol: as §1

[12] = test system: Streptococcus pyogens 77A; experiment: as above; settings: 2-fold agar dilution, Muller-Hinton agar, 18 hours at 37° C., read-out: minimum inhibitory concentration (MIC)
Protocol: as §1

Esherichia coli TEM = experiment: as above; settings: 2-fold agar dilution, Muller-Hinton agar, 18 hours at 37° C., read-out: minimum inhibitory concentration (MIC)
Protocol: as §1

Esherichia coli 1507E = experiment: as above; settings: 2-fold agar dilution, Muller-Hinton agar, 18 hours at 37° C., read-out: minimum inhibitory concentration (MIC)
Protocol: as §1

[13] = test system: Staphylococcus aureus 121E; experiment: In vitro antibacterial activity against resistant strains (MIC); settings: resistant strain Staphylococcus aureus 121E; 2-fold agar dilution; methicillin resistant strains 48 hours at 30° C.; read-out: minimum inhibitory concentration (MIC)
Protocol: as §1

[14] = test system: Staphylococcus aureus 695E; experiment: as above; settings: resistant strain Staphylococcus aureus 695E; 2-fold agar dilution; methicillin resistant strains 48 hours at 30° C.; read-out: minimum inhibitory concentration (MIC)
Protocol: as §1

[15] = test system: Staphylococcus aureus 88E; experiment: as above; settings: resistant strain Staphylococcus aureus 88E; 2-fold agar dilution; methicillin resistant strains 48 hours at 30° C.; read-out: minimum inhibitory concentration (MIC)
Protocol: as §1

[16] = test system: Staphylococcus aureus 694E; experiment: as above; settings: resistant strain Staphylococcus aureus 694E; 2-fold agar dilution; methicillin resistant strains 48 hours at 30° C.; read-out: minimum inhibitory concentration (MIC)
Protocol: as §1

[17] = test system: Staphylococcus aureus 208E; experiment: as above; settings: resistant strain Staphylococcus aureus 208E; 2-fold agar dilution; methicillin resistant strains 48 hours at 30° C.; read-out: minimum inhibitory concentration (MIC)
Protocol: as §1

[18] = test system: Staphylococcus aureus 693E; experiment: as above; settings: resistant strain Staphylococcus aureus 693E; 2-fold agar dilution; methicillin resistant strains 48 hours at 30° C.; read-out: minimum inhibitory concentration (MIC)
Protocol: as §1

[19] = test system: Staphylococcus aureus 293; experiment: as above; settings: resistant strain Staphylococcus aureus 293; 2-fold agar dilution; methicillin resistant strains 48 hours at 30° C.; read-out: minimum inhibitory concentration (MIC)
Protocol: as §1

[20] = test system: Staphylococcus aureus 179; experiment: as above; settings: resistant strain Staphylococcus aureus 179; 2-fold agar dilution; methicillin resistant strains 48 hours at 30° C.; read-out: minimum inhibitory concentration (MIC)
Protocol: as §1

[21] = test system: Staphylococcus aureus 701E; experiment: as above; settings: resistant strain Staphylococcus aureus 701E; 2-fold agar dilution; methicillin resistant strains 48 hours at 30° C.; read-out: minimum inhibitory concentration (MIC)
Protocol: as §1

[22] = test system: Staphylococcus aureus 256E; experiment: as above; settings: resistant strain Staphylococcus aureus 256E; 2-fold agar dilution; methicillin resistant strains 48 hours at 30° C.; read-out: minimum inhibitory concentration (MIC)
Protocol: as §1

[23] = test system: Staphylococcus aureus 303; experiment: as above; settings: resistant strain Staphylococcus aureus 303; 2-fold agar dilution; methicillin resistant strains 48 hours at 30° C.; read-out: minimum inhibitory concentration (MIC)
Protocol: as §1

[24] = test system: Staphylococcus aureus 692E; experiment: as above; settings: resistant strain Staphylococcus aureus 692E; 2-fold agar dilution; methicillin resistant strains 48 hours at 30° C.; read-out: minimum inhibitory concentration (MIC)
Protocol: as §1

[25] = test system: Staphylococcus aureus 690E; experiment: as above; settings: resistant strain Staphylococcus aureus 690E; 2-fold agar dilution; methicillin resistant strains 48 hours at 30° C.; read-out: minimum inhibitory concentration (MIC)
Protocol: as §1

[26] = test system: Staphylococcus aureus 703E; experiment: as above; settings: resistant strain Staphylococcus aureus 703E; 2-fold agar dilution; methicillin resistant strains 48 hours at 30° C.; read-out: minimum inhibitory concentration (MIC)
Protocol: as §1

[27] = test system: Staphylococcus epidermidis 178; experiment: as above; settings: resistant strain Staphylococcus epidermidis 178; 2-fold agar dilution; methicillin resistant strains 48 hours at 30° C.; read-out: minimum inhibitory concentration (MIC)
Protocol: as §1

[28] = test system: Staphylococcus aureus 8236; experiment: as above; settings: resistant strain Staphylococcus aureus 8236; 2-fold agar dilution; methicillin resistant strains 48 hours at 30° C.; read-out: minimum inhibitory concentration (MIC)
Protocol: as §1

[29] = test system: Staphylococcus aureus 241; experiment: as above; settings: resistant strain Staphylococcus aureus 241; 2-fold agar dilution; methicillin resistant strains 48 hours at 30° C.; read-out: minimum inhibitory concentration (MIC)
Protocol: as §1

[30] = test system: Staphylococcus aureus 697E; experiment: as above; settings: resistant strain Staphylococcus aureus 697E; 2-fold agar dilution; methicillin resistant strains 48 hours at 30° C.; read-out: minimum inhibitory concentration (MIC)
Protocol: as §1

[31] = test system: Staphylococcus epidermidis 291; experiment: as above; settings: resistant strain Staphylococcus epidermidis 291; 2-fold agar dilution; methicillin resistant strains 48 hours at 30° C.; read-out: minimum inhibitory concentration (MIC)
Protocol: as §1

Measured: MIC

C[C@@H]1CN(c2c(F)c(N)c3c(=O)c(C(=O)O)cn(C4CC4)c3c2F)C[C@H](C)N1 [Sparfloxacin, sparfloxacin, reference compound]
6.25 µg/mL: [19] | [20] | [27] | [28] | [29] | [31]
< 0.002 µg/mL: Klebsiella oxytoca 1082E
0.049 µg/mL: [4] | [6] | [14] | [18] | [24] | [25] | [30]
0.391 µg/mL: [8] | [11]
0.025 µg/mL: [5] | Esherichia coli 1507E
0.007 µg/mL: Salmonella typhimurium | Enterobacter clocae P99
0.781 µg/mL: [1] | [9] | [10]
0.004 µg/mL: [7] | Esherichia coli 078
3.12 µg/mL: [23]
0.013 µg/mL: Esherichia coli TEM
0.195 µg/mL: [3] | Esherichia coli DC0 | [12]
0.098 µg/mL: all other assays above
